According to the RepoRT retention time repository (doi:10.1016/j.chroma.2014.05.003):

Test: RP, Agilent ZORBAX Eclipse Plus C18, 50 × 4.6 mm, 1.8 µm, 0.5 mL/min, estimated dead time 1.1 min; A: water + 0.1% formic acid; B: acetonitrile + 0.1% formic acid; gradient (min/%B) 0/10 3/10 25/100 28/100
Conditions: stereoisomer not certain

SMILES	LC retention time
CNC(=O)Oc1cc(C)cc(C(C)C)c1	15 min
CON=C(C(=O)OC)c1ccccc1COc1ccccc1C	18 min
CCOc1ccc2c(c1)C(C)=CC(C)(C)N2	11.8 min
CCOc1ccc(NC(=O)OC(C)C)cc1OCC	15.3 min
Cc1cccc(Nc2ccccc2C(=O)O)c1C	17.7 min
COCCOc1ccccc1S(=O)(=O)NC(=O)Nc1nc(OC)nc(OC)n1	11.9 min
COC1C(O)CC(=O)OC(C)CC=CC=CC(OC2CCC(N(C)C)C(C)O2)C(C)CC(CC=O)C1OC1OC(C)C(OC2CC(C)(O)C(O)C(C)O2)C(N(C)C)C1O (configuration not stated)	7.59 min
CCOC(=O)C1CC(=O)C(=C(O)C2CC2)C(=O)C1 (configuration not stated)	14.2 min
CNC(=O)Oc1cc(C)c(SC)c(C)c1	15 min
COC(=O)NN=Cc1c[n+]([O-])c2ccccc2[n+]1[O-]	6.32 min
CNC(=O)Oc1ccc(N(C)C)c(C)c1	1.85 min
CC(C)NCC(O)COc1ccc(CC(N)=O)cc1 (configuration not stated)	1.76 min
CN(C)C1C(=O)C(C(N)=O)=C(O)C2(O)C(=O)C3=C(O)c4c(O)cccc4C(C)(O)C3CC12 (configuration not stated)	6.62 min
COP(=S)(OC)SCn1nnc2ccccc2c1=O	15.4 min
COP(=S)(OC)Oc1ccc(Sc2ccc(OP(=S)(OC)OC)cc2)cc1	21.2 min
CCOP(=S)(OCC)Oc1ccc(S(C)=O)cc1 (configuration not stated)	13.5 min
CCNC(C)Cc1ccc2c(c1)OCO2 (configuration not stated)	6.16 min
O=C(O)c1ccccc1C(=O)Nc1cccc2ccccc12	11.7 min
CC(=O)CC(c1ccccc1)c1c(O)c2ccccc2oc1=O (configuration not stated)	14.9 min

SMILES	LC retention time
COC(=O)C=C(C)OP(=O)(OC)OC	9.1 min
CCNc1nc(NC(C)C)nc(SC)n1	10.4 min
CC(C)c1cc(Oc2ccccc2)cc(C(C)C)c1NC(=S)NC(C)(C)C	22.3 min
NC(=O)N1c2ccccc2C=Cc2ccccc21	11.2 min
CCC(=O)C(CC(C)N(C)C)(c1ccccc1)c1ccccc1 (configuration not stated)	11.4 min
CNC(=O)Oc1ccccc1C(C)C	13.6 min
CCn1cc(C(=O)O)c(=O)c2cc3c(cc21)OCO3	9.71 min
CNC(=O)ON=CC(C)(C)S(C)=O (configuration not stated)	2.7 min
CC12CCC3c4ccc(O)cc4CCC3C1CCC2=O (configuration not stated)	14.6 min
CCCCC(CC)COC(=O)c1ccccc1C(=O)OCC(CC)CCCC (configuration not stated)	27.5 min
CON(C(=O)c1cc(C)oc1C)C1CCCCC1	17.7 min
COC(=O)Nc1nc2ccc(S(=O)c3ccccc3)cc2[nH]1 (configuration not stated)	8.64 min
CCN(CC)c1nc(C)cc(OP(=S)(OC)OC)n1	19 min
CCOP(=O)(Sc1ccccc1)Sc1ccccc1	17.6 min
O=c1oc2ccccc2c(O)c1C1CC(c2ccc(-c3ccccc3)cc2)Cc2ccccc21 (configuration not stated)	21.7 min
COc1ccc(Oc2ccc(NC(=O)N(C)C)cc2)cc1	13.3 min
CSc1nc(NC(C)C)nc(NC(C)C)n1	12.1 min
CN(C)C1CSSSC1	2.02 min
